The text below walks through data of patent US8106059B2, “Substituted pyrazines that inhibit protease cathepsin S and HCV replication” (ViroBay, Inc., priority 2007, dated 2012).

A word on the IC50: it is the point on the concentration scale where inhibition reaches its midpoint.

Read-outs that look alike come from different tables or passages of the source.

In assay [1] the target is recombinant human cathepsin S (Homo sapiens, UniProt P25774). The experiment in a line: Cathepsin S enzyme activity assay. To be noted: 10 uM Z-Leu-Arg-AMC, pH 4.5, 25° C. The class given is biochemical. The procedure: The cysteine protease inhibitor E-64 is assayed in parallel as a positive control.
Chain of recombinant human cathepsin S (P25774 115-331): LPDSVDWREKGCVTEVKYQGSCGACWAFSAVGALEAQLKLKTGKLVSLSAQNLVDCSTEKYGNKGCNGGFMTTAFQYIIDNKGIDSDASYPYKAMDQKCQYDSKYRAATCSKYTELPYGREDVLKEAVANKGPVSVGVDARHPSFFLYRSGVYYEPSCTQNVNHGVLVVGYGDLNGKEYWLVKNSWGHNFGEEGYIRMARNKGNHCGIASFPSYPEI
Human recombinant cathepsin S is incubated with compounds or vehicle (final concentration=1% DMSO vehicle) in the presence of peptide substrate which is 10 uM Z-Leu-Arg-AMC. Compounds are preincubated with the enzyme for 15 minutes at 25° C. and the reaction started by the addition of substrate. Incubation with substrate proceeds for 30 minutes at 25° C. Incubation buffer is 20 mM CH3COONa, pH 4.5, 2.5 mM DTT, 0.05 M NaCl. Cathepsin S-mediated substrate cleavage is quantified using spectofluorimetric quantitation of AMC.

Assay [2] relates to HCV replicon-containing cells (Huh7/Clone A). The experiment in a line: HCV replicon assay. The assay is classed as cell-based, Hepatitis C virus. To be noted: at 25 μM, 48 hours. An excerpt: The HCV replicon assay is a cell-culture system that mimics in vivo HCV replication and provides a system to study HCV replication in vitro. It was created by transfecting cloned viral RNA derived from a consensus HCV genomic sequence into human Huh7 hepatoma cells that are semi-permissive for viral RNA production (Lohmann V., Korner F., Koch J.-O., Herian U., Theilmann L. and Bartenschlager R. (1999). Replication of subgenomic Hepatitis C virus RNAs in a hepatoma cell line. Science 285, 110-113 and Blight K. J., Kolykhalov A. A. and Rice C. M. (2000). Efficient initiation of HCV RNA Replication in cell culture. Science 290, […]). These transfected cell lines contain a subgenomic HCV RNA genome that includes (1) the HCV 5′NTR fused to 12 amino acids of the capsid coding region, (2) the neomycin phosphotransferase gene (Neo) as a selectable marker, (3) the internal ribosome entry site (IRES) from encephalomyocarditis virus (EMCV) that directs translation of HCV non-structural proteins (variously NS2 or NS3 to NS5B), and (4) the 3′ NTR. Replicon-containing cells autonomously and persistently replicate HCV RNA that can be measured quantitatively by real-time qPCR. Therefore, the replicon system facilitates quantitative assessment of anti-viral activity by monitoring changes in HCV RNA replication in a cell-based assay.
HCV replicon-containing cells (Huh7/Clone A) were routinely maintained in Clone A growth medium (DMEM medium [Invitrogen], supplemented with 10% Fetal Bovine Serum, 1% Non Essential Amino Acids and 1 g/L G418). Test compounds were dissolved in dimethylsulfoxide (DMSO) to make 200× stock solutions for all doses prior to treatment.
For the HCV replicon assay, Huh7/Clone A cells were trypsinized from culture flasks, seeded in 1 ml of Clone A growth medium without G418 at 4×10^4 cells per well in 24-well plates and incubated at 37° C. in a humidified CO2 (5%) incubator overnight. Following overnight incubation, compound solutions were added into wells in the same volume (5 μl of 200× compound stock per well) to give a final DMSO concentration of 0.5%. Three wells on each plate supplemented with 5 μl of DMSO served as untreated controls. […]
Total RNA eluted in 130 μl of RNase-free dH2O was quantitated by the RiboGreen Assay according to the supplier's protocol (Molecular Probe). […] RNA samples in the black microplate were mixed with 95 μl of diluted RiboGreen reagent (1:250 dilution in TE buffer) and sample fluorescence was measured using a fluorescence microplate reader at standard fluorescein wavelengths (excitation ˜480 nm, emission ˜520 nm). […]
TaqMan quantitative PCR (RT-qPCR) was used to quantitate the amount of HCV replicon RNA in each sample. […]
On the technique in general: A replicon is a self-replicating genome or part of one, used to study replication in cells.

Setting [3] is: Cathepsin S IC50, recombinant human cathepsin S.
Setting [4] is: recombinant human cathepsin S, read-out: Cathepsin S IC50.

On to `CCC[C@H](NC(=O)[C@@H]1[C@H]2CCC[C@H]2CN1C(=O)[C@@H](NC(C(NC(=O)c1cnccn1)C1CCCCC1)C(F)(F)F)C(C)(C)C)C(=O)C(=O)NC1CC1` (single isomer, unassigned) [Formula I isomer D], for which the IC50 in assay [1] (setting [3]) stood at 0.6 nM. Also, the “inhibition of HCV replicon RNA” value in assay [2] worked out at 29%. Regarding `CCC[C@H](NC(=O)[C@@H]1[C@H]2CCC[C@H]2CN1C(=O)[C@@H](NC(=O)[C@@H](NC(c1cnccn1)C(F)(F)F)C1CCCCC1)C(C)(C)C)C(=O)C(=O)NC1CC1` (single isomer, unassigned) [Formula I isomer F], the half-inhibitory concentration (IC50) in assay [1] (setting [4]) was 1.4 nM. Consider `CCC[C@H](NC(=O)[C@@H]1[C@H]2CCC[C@H]2CN1C(=O)[C@@H](NC(=O)[C@@H](NC(c1cnccn1)C(F)(F)F)C1CCCCC1)C(C)(C)C)C(=O)C(=O)NC1CC1` (single isomer, unassigned) [Formula I isomer E], for which the IC50 in assay [1] (setting [4]) stood at 1.8 nM. For `CCC[C@H](NC(=O)[C@@H]1[C@H]2CCC[C@H]2CN1C(=O)[C@@H](NC(C(NC(=O)c1cnccn1)C1CCCCC1)C(F)(F)F)C(C)(C)C)C(=O)C(=O)NC1CC1` (single isomer, unassigned) [Formula I isomer A], the IC50 in assay [1] (setting [4]) was 4.1 nM. In assay [2], the “inhibition of HCV replicon RNA” value was determined as 41%. In the case of `CCC[C@H](NC(=O)[C@@H]1[C@H]2CCC[C@H]2CN1C(=O)[C@@H](NC(C(NC(=O)c1cnccn1)C1CCCCC1)C(F)(F)F)C(C)(C)C)C(=O)C(=O)NC1CC1` (single isomer, unassigned) [Formula I isomer C], in assay [1] (setting [3]), the half-maximal inhibitory concentration (IC50) was found to be 2 nM. Also, the “inhibition of HCV replicon RNA” value in assay [2] was determined as 34%. For the compound `CCC[C@H](NC(=O)[C@@H]1[C@H]2CCC[C@H]2CN1C(=O)[C@@H](NC(C(NC(=O)c1cnccn1)C1CCCCC1)C(F)(F)F)C(C)(C)C)C(=O)C(=O)NC1CC1` (single isomer, unassigned) [Formula I isomer B], the half-maximal inhibitory concentration (IC50) in assay [1] (setting [3]) worked out at 0.6 nM. Further, the “inhibition of HCV replicon RNA” value in assay [2] worked out at 33%.
